Measurements published in US6414153B1, “1-phenylpydrrolidin-2-ones and -thiones and 1-(4-pyridyl)pydrrolidin-2-ones and -thiones which are useful in the treatment of inflammatory disease” (Boehringer Ingelheim Pharmaceuticals, Inc., priority 1999, dated 2002).

Key:
[1] = biological target: T1, LFA-1 (CD18/CD11a) binding to ICAM-1 (Homo sapiens, UniProt P05107+P20701); assay: Assay to Determine Inhibition of LFA-1 Binding to ICAM-1; details: immunoaffinity purified LFA-1 on plate-bound sICAM-1, 37° C. for 1 h, dose-response curve
T1 construct: endogenous in cells; host or cells: LFA-1: endogenous, immunopurified from human JY or SKW3 cell lysates. sICAM-1: made in house, secreted from transfected CHO DUX cells
Source text: This assay protocol is designed to study the direct antagonism, by a test compound, of the interaction of the CAM, ICAM-1 with the Leukointegrin CD18/CD11a (LFA-1).
After collection and neutralization of fractions from the TS2/4 column, samples are pooled and precleared with Protein G agarose.
An expression vector is created with a hamster dihydrofolate reductase gene, a neomycin-resistance marker, and the coding region of the sICAM-1 construct described above, along with the promoter, splice signals, and polyadenylation signal of the SV40 early region. The recombinant plasmid is transfected into CHO DUX cells using standard calcium phosphate methods. Cells are passaged in selective media (G418) and colonies secreting sICAM-1 are amplified using methotrexate. sICAM-1 is purified from serum-free media using traditional non-affinity chromatographic techniques, including ion exchange and size exclusion chromatography.
LFA-1 binding to ICAM-1 is monitored by first incubating sICAM-1 at 40 μg/mL in Dulbecco's phosphate buffered saline with calcium and magnesium, additional 2 mM MgCl2 and 0.1 mM PMSF (Diluting Buffer) in a 96-well plate for 30 min at room temperature. Plates are then blocked by the addition of 2% (w/v) bovine serum albumin in Diluting Buffer for 37° C. for 1 h. Blocking solution is removed from wells, and test compounds are diluted and then added followed by the addition of approximately 25 ng of immunoaffinity purified LFA-1. The LFA-1 is incubated in the presence of test compound and ICAM-1 at 37° C. for 1 h. Wells are washed 3 times with Diluting Buffer. The bound LFA-1 is detected by the addition of a polyclonal antibody directed against a peptide corresponding to the CD18 cytoplasmic tail in a 1:100 dilution with Diluting Buffer and 1% BSA and allowed to incubate for 45 min at 37° C. Wells are washed 3 times with Diluting Buffer and the bound polyclonal antibody is detected by the addition of a 1:4000 dilution of horse radish peroxidase conjugated to goat immunoglobulin directed against rabbit immunoglobulin. This reagent is allowed to incubate for 20 min at 37° C., wells are washed as above and the substrate for the horse radish peroxidase is added to each well to develop a quantitative colorimetric signal proportional to the amount of LFA-1 bound to sICAM-1. […] The lack of the addition of LFA-1 to the binding assay is used as a background control for all samples. A dose-response curve is obtained for all test compounds.

T1 sequence (P20701 26-1170): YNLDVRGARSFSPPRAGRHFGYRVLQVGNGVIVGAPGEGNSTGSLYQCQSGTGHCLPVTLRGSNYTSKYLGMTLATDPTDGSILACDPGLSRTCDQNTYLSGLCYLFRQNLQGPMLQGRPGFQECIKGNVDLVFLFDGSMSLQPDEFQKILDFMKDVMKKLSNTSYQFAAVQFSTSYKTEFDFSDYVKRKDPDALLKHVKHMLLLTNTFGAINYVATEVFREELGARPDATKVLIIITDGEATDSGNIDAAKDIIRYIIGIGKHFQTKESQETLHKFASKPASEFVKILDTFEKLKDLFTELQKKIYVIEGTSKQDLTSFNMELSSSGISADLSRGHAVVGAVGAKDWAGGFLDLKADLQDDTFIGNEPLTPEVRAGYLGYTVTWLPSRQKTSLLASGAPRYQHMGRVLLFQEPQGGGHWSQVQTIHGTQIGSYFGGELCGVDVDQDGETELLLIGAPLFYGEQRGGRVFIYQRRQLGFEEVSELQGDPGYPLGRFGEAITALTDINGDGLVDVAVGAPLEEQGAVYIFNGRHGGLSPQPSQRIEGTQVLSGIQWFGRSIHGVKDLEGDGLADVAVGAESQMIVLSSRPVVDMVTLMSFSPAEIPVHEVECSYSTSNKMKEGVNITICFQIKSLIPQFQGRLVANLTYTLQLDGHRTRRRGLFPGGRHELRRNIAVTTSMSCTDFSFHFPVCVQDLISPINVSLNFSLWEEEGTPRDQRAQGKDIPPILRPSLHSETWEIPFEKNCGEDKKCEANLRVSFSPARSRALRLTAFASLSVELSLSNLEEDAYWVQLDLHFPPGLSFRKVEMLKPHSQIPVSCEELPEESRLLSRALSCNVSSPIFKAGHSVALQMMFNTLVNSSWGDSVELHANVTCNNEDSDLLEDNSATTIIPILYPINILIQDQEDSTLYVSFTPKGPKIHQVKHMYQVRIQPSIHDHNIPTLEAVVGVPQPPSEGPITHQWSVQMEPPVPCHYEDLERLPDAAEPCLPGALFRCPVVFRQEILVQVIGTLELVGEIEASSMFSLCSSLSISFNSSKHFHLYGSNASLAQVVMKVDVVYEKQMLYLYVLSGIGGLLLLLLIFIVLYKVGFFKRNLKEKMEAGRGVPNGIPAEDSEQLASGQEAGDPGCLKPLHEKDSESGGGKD
T1 sequence (P05107 23-769): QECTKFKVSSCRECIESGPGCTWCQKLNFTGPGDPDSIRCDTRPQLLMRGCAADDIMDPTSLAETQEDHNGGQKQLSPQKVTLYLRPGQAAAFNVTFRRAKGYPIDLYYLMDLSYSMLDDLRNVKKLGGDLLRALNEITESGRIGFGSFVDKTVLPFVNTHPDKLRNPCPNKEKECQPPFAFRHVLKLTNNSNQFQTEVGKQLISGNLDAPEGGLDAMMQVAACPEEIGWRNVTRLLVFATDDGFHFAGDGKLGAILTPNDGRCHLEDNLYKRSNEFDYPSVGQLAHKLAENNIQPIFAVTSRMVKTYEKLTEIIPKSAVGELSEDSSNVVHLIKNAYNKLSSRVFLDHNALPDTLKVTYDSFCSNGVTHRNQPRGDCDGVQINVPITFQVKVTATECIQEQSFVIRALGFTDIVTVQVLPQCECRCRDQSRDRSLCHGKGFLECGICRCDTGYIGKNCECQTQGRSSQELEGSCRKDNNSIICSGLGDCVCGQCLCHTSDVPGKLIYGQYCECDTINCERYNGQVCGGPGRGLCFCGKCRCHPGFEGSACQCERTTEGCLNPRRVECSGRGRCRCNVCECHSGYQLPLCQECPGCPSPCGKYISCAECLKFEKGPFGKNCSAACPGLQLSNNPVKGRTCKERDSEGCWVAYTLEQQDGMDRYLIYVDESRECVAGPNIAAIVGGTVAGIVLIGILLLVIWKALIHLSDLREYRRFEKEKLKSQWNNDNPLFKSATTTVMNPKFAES

Row | Structure (SMILES) | melting point [°C] | Kd [1] [nM]
1 | O=C1C(Cc2ccc(Br)cc2)c2ccccc2N1c1cc(Cl)cc(Cl)c1 (centres unmarked) [Example 1, 3-(4-Bromobenzyl)-1-(3,5-dichlorophenyl)-1,3-dihydroindol-2-one] | 139 to 142 | > 10000
2 | CC1(Cc2ccc(Br)cc2)C(=O)N(c2cc(Cl)cc(Cl)c2)c2ccccc21 (centres unmarked) [Example 2, 3-(4-Bromobenzyl)-1-(3,5-dichlorophenyl)-3-methyl-1,3-dihydro-indol-2-one] | – | > 10000
3 | CC1(Cc2ccc(C#N)cc2)C(=O)N(c2cc(Cl)cc(Cl)c2)c2ncccc21 (centres unmarked) [Example 5, 3-(4-cyanobenzyl)-1-(3,5-dichlorophenyl)-3-methyl-1,3-dihydropyrrolo[2,3-b]pyridin-2-one] | – | 3530
4 | O=C1C(Cc2ccc(Br)cc2)c2cc(F)ccc2N1c1cc(Cl)cc(Cl)c1 (centres unmarked) [Example 7, 3-(4-bromobenzyl)-1-(3,5-dichlorophenyl)-5-fluoro-1,3-dihydroindol-2-one] | 178 to 179 | 2710
5 | O=C(O)c1ccc2c(c1)N(c1cc(Cl)cc(Cl)c1)C(=O)C2Cc1ccc(Br)cc1 (centres unmarked) [Example 8, 3-(4-bromobenzyl)-1-(3,5-dichlorophenyl)-1,3-dihydroindol-2-one-6-carboxylic acid] | 264 to 266 | 4890
6 | COc1ccc2c(c1)C(Cc1ccccc1)C(=O)N2c1cc(Cl)cc(Cl)c1 (centres unmarked) [Example 13, 3-benzyl-1-(3,5-dichlorophenyl)-5-methoxy-1,3-dihydroindol-2-one] | 118 to 119 | > 10000
7 | O=C1C(Cc2ccccc2)c2cc(O)ccc2N1c1cc(Cl)cc(Cl)c1 (centres unmarked) [Example 14, 3-benzyl-1-(3,5-dichlorophenyl)-5-hydroxy-1,3-dihydroindol-2-one] | 232 to 235 | > 10000
8 | O=C1C(Cc2ccccc2)c2ccccc2N1c1cc(Cl)cc(Cl)c1 (centres unmarked) [Example 15, 3-benzyl-1-(3,5-dichlorophenyl)-1,3-dihydroindol-2-one] | 109 to 111 | 4970

Compounds with a lower Kd [1], results first:

Row | melting point [°C] | Kd [1] [nM] | Structure (SMILES)
9 | 225 to 227 | 2540 | CC1(Cc2cccc(Br)c2)C(=O)N(c2cc(Cl)cc(Cl)c2)c2cccc(O)c21 (centres unmarked) [Example 11, 3-(3-bromobenzyl)-1-(3,5-dichlorophenyl)-4-hydroxy-3-methyl-1,3-dihydroindol-2-one]
10 | 225 to 227 | 1790 | CC1(Cc2ccc(Br)cc2)C(=O)N(c2cc(Cl)cc(Cl)c2)c2cccc(O)c21 (centres unmarked) [Example 6, 3-(4-bromobenzyl)-1-(3,5-dichlorophenyl)-4-hydroxy-3-methyl-1,3-dihydroindol-2-one]
11 | 165 to 166.5 | 1440 | CC1(Cc2ccccc2)C(=O)N(c2cc(Cl)cc(Cl)c2)c2cccc(O)c21 (centres unmarked) [Example 16, 3-benzyl-1-(3,5-dichlorophenyl)-4-hydroxy-3-methyl-1,3-dihydroindol-2-one]
12 | 181 to 185 | 1310 | O=C1C(Cc2ccccc2)c2c(O)cccc2N1c1cc(Cl)cc(Cl)c1 (centres unmarked) [Example 12, 3-benzyl-1-(3,5-dichlorophenyl)-4-hydroxy-1,3-dihydroindol-2-one]
13 | 142 to 144 | 1080 | COc1cccc2c1C(Cc1cccc(Br)c1)C(=O)N2c1cc(Cl)cc(Cl)c1 (centres unmarked) [Example 10, 3-(3-bromobenzyl)-1-(3,5-dichlorophenyl)-4-methoxy-1,3-dihydroindol-2-one]
14 | 203 to 208 | 917 | O=C1C(Cc2ccc(Br)cc2)c2c(O)cccc2N1c1cc(Cl)cc(Cl)c1 (centres unmarked) [Example 17, 3-(4-bromobenzyl)-1-(3,5-dichlorophenyl)-4-hydroxy-1,3-dihydroindol-2-one]
15 | 138 to 140 | 705 | COc1cccc2c1C(Cc1ccccc1)C(=O)N2c1cc(Cl)cc(Cl)c1 (centres unmarked) [Example 9, 3-benzyl-1-(3,5-dichlorophenyl)-4-methoxy-1,3-dihydroindol-2-one]
16 | – | 375 | CC1(Cc2ccc(Br)cc2)C(=O)N(c2cc(Cl)cc(Cl)c2)c2ncccc21 (centres unmarked) [Example 3, 3-(4-Bromobenzyl)-1-(3,5-dichlorophenyl)-3-methyl-1,3-dihydropyrrolo[2,3-b]pyridin-2-one]
